Results as given in US20260015358A1, “BICYCLIC DERIVATIVES, COMPOSITIONS AND USES THEREOF” (Danatlas Pharmaceuticals Co., Ltd., priority 2023, published 2026).

Columns and labels:
[1] = target: T1, WRN [UniPro: Q14191 (WRN_HUMAN), N500-C946] (Homo sapiens (Human), UniProt Q14191); test: WRN unwinding assay (FORKF DNA, fluorescence); type: biochemical; conditions: Table 14
[2] = target: T1, WRN [UniPro: Q14191 (WRN_HUMAN), N500-C946]; test: WRN ATPase assay (ADP-Glo); type: biochemical; conditions: WRN enzymatic activity assay
Procedure: WRN ATPase assay was initiated to evaluate potential inhibitory effect of compounds for ATP hydrolysis activity of WRN protein. WRN [UniPro: Q14191 (WRN_HUMAN), N500-C946] was expressed and purified in insect system and stored at −80° C. in aliquots. […] ADP quantity produced from ATP hydrolysis by WRN catalytic reaction was measured using a commercially available ADP-Glo Assay (ADP-Glo™ Kinase Assay from Promega, 10000 assays, #V9102). […] Compounds dissolved in DMSO (Sigma, D8418) were plated into a 96-well intermediate plate (BioFil, VWP-032-096) for 3-fold serial titration for 10 points using DMSO, and well-to-well transfer the titrated compounds into another 96-well intermediate plate including assay buffer in advance. Shake the 96-well intermediate plate at 600 rpm for 10 min to fully mix. Specifically, a 4× working mixture of WRN was diluted to a concentration of 8 nM in assay buffer. […] After centrifuging at 1000 rpm and shaking at 500 rpm, the assay plate was pre-incubated for 30 min. Then, 5 μL 2×FORKF DNA and ATP working mixture was dispensed into assay plate. Plate was sealed, centrifuged and incubated for an additional 40 min. at 37° C. The reaction was stopped with the addition of 10 μL of the first ADP-Glo reagent and incubated for 40 min. to remove the excess amount of ATP. Afterwards, 20 μL of ATP detection reagent was added and incubated for 30 min. before reading. Luminescence output was recorded using BMG CLARIO star plus reader. Each concentration of compound was tested in duplicates in the assay plate. Average luminescence signal of high control (Wells with 1% DMSO) was calculated as High Control (HC). Average luminescence signal of low control (Wells with no WRN protein) was calculated as Low control (LC).
IC50 values were determined by fitting the data to the standard 4 parameters with Hill Slope using GraphPad Prism software.

T1 sequence (Q14191 500-946): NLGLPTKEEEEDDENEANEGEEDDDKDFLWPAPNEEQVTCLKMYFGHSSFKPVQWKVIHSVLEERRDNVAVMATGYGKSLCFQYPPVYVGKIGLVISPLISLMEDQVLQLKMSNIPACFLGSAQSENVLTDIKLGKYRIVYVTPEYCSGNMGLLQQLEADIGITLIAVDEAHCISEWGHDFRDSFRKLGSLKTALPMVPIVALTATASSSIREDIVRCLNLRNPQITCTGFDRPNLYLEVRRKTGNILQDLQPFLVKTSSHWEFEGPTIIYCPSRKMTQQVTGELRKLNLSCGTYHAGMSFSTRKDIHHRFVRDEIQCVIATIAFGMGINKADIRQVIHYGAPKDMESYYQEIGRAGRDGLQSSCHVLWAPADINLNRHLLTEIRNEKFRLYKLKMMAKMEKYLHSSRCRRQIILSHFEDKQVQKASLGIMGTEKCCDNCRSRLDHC

SMILES	IC50 [1] [nM]	IC50 [2] [nM]
CCc1c(N2CCN(C(=O)C(F)N3C(=O)c4ccccc4C3=O)CC2)c(=O)n2nc(C3=CCOCC3)nc2n1CC(=O)Nc1ccc(C(F)(F)F)cc1Cl (centres unmarked) [Example 345, N-(2-chloro-4-(trifluoromethyl)phenyl)-2-(2-(3,6-dihydro-2H-pyran-4-yl)-6-(4-(2-(1,3-dioxoisoindolin-2-yl)-2-fluoroacetyl)piperazin-1-yl)-5-ethyl-7-oxo-[1,2,4]triazolo[1,5-a]pyrimidin-4(7H)-yl)acetamide]	100 to 1000	100 to 1000
CCc1c(N2CCN(C(=O)CNC(=O)c3cc(F)cc(F)c3)CC2)c(=O)n2nc(C3=CCOCC3)nc2n1CC(=O)Nc1ccc(C(F)(F)F)cc1Cl [Example 115, N-(2-(4-(4-(2-((2-Chloro-4-(trifluoromethyl)phenyl)amino)-2-oxoethyl)-2-(3,6-dihydro-2H-pyran-4-yl)-5-ethyl-7-oxo-4,7-dihydro-[1,2,4]triazolo[1,5-a]pyrimidin-6-yl)piperazin-1-yl)-2-oxoethyl)-3,5-difluorobenzamide]	< 100	< 100
CCc1c(N2CCN(C(=O)C(=O)Nc3ncco3)CC2)c(=O)n2nc(C3=CCOCC3)nc2n1CC(=O)Nc1ccc(C(F)(F)F)cc1F [Example 228, 2-(4-(2-(3,6-Dihydro-2H-pyran-4-yl)-5-ethyl-4-(2-((2-fluoro-4-(trifluoromethyl)phenyl)amino)-2-oxoethyl)-7-oxo-4,7-dihydro-[1,2,4]triazolo[1,5-a]pyrimidin-6-yl)piperazin-1-yl)-N-(oxazol-2-yl)-2-oxoacetamide]	< 100	< 100
CCc1c(N2CCN(C(=O)C(=O)Nc3ccno3)CC2)c(=O)n2nc(C3=CCOCC3)nc2n1CC(=O)Nc1ccc(C(F)(F)F)cc1Cl [Example 354, 2-(4-(4-(2-((2-Chloro-4-(trifluoromethyl)phenyl)amino)-2-oxoethyl)-2-(3,6-dihydro-2H-pyran-4-yl)-5-ethyl-7-oxo-4,7-dihydro-[1,2,4]triazolo[1,5-a]pyrimidin-6-yl)piperazin-1-yl)-N-(isoxazol-5-yl)-2-oxoacetamide]	< 100	< 100
CCc1c(N2CCN(C(=O)c3ncn4cccc4c3O)CC2)c(=O)n2nc(C3=CCOCC3)nc2n1CC(=O)Nc1ccc(C(F)(F)F)cc1Cl [Example 202, N-(2-Chloro-4-(trifluoromethyl)phenyl)-2-(2-(3,6-dihydro-2H-pyran-4-yl)-5-ethyl-6-(4-(4-hydroxypyrrolo[1,2-c]pyrimidine-3-carbonyl)piperazin-1-yl)-7-oxo-[1,2,4]triazolo[1,5-a]pyrimidin-4(7H)-yl)acetamide]	100 to 1000	100 to 1000
CCc1c(N2CCN(C(=O)c3cnc4sccc4c3O)CC2)c(=O)n2nc(C3=CCOCC3)nc2n1CC(=O)Nc1ccc(C(F)(F)F)cc1Cl [Example 55, N-(2-Chloro-4-(trifluoromethyl)phenyl)-2-(2-(3,6-dihydro-2H-pyran-4-yl)-5-ethyl-6-(4-(4-hydroxythieno[2,3-b]pyridine-5-carbonyl)piperazin-1-yl)-7-oxo-[1,2,4]triazolo[1,5-a]pyrimidin-4(7H)-yl)acetamide]	< 100	< 100
CCc1c(N2CCN(C(=O)CNC(=O)c3cc(F)cc(NC)c3)CC2)c(=O)n2nc(C3=CCOCC3)nc2n1CC(=O)Nc1ccc(C(F)(F)F)cc1Cl [Example 284, N-(2-(4-(4-(2-((2-Chloro-4-(trifluoromethyl)phenyl)amino)-2-oxoethyl)-2-(3,6-dihydro-2H-pyran-4-yl)-5-ethyl-7-oxo-4,7-dihydro-[1,2,4]triazolo[1,5-a]pyrimidin-6-yl)piperazin-1-yl)-2-oxoethyl)-3-fluoro-5-(methylamino)benzamide]	< 100	< 100
CCc1c(N2CCN(C(=O)c3cc4ccnn4cn3)CC2)c(=O)n2nc(C3=CCOCC3)nc2n1CC(=O)Nc1ccc(C(F)(F)F)cc1Cl [Example 296, N-(2-Chloro-4-(trifluoromethyl)phenyl)-2-(2-(3,6-dihydro-2H-pyran-4-yl)-5-ethyl-7-oxo-6-(4-(pyrazolo[1,5-c]pyrimidine-5-carbonyl)piperazin-1-yl)-[1,2,4]triazolo[1,5-a]pyrimidin-4(7H)-yl)acetamide]	100 to 1000	100 to 1000
CCc1c(N2CCN(C(=O)C(=O)Nc3ncco3)CC2)c(=O)n2nc(C3=CCOCC3)nc2n1CC(=O)Nc1ccc(C(F)(F)F)cc1Cl [Example 226, 2-(4-(4-(2-((2-Chloro-4-(trifluoromethyl)phenyl)amino)-2-oxoethyl)-2-(3,6-dihydro-2H-pyran-4-yl)-5-ethyl-7-oxo-4,7-dihydro-[1,2,4]triazolo[1,5-a]pyrimidin-6-yl)piperazin-1-yl)-N-(oxazol-2-yl)-2-oxoacetamide]	< 100	< 100
CCc1c(N2CCN(C(=O)CNC(=O)c3ccc(F)c(NC)c3)CC2)c(=O)n2nc(N3CCOCC3)nc2n1CC(=O)Nc1ccc(C(F)(F)F)cc1F [Example 256, N-(2-(4-(5-Ethyl-4-(2-((2-fluoro-4-(trifluoromethyl)phenyl)amino)-2-oxoethyl)-2-morpholino-7-oxo-4,7-dihydro-[1,2,4]triazolo[1,5-a]pyrimidin-6-yl)piperazin-1-yl)-2-oxoethyl)-4-fluoro-3-(methylamino)benzamide]	< 100	< 100
[2H]C([2H])(NC(=O)c1ccccc1F)C(=O)N1CCN(c2c(CC)n(CC(=O)Nc3ccc(C(F)(F)F)cc3Cl)c3nc(N4CCOCC4)nn3c2=O)CC1 [Example 138, N-(2-(4-(4-(2-((2-Chloro-4-(trifluoromethyl)phenyl)amino)-2-oxoethyl)-5-ethyl-2-morpholino-7-oxo-4,7-dihydro-[1,2,4]triazolo[1,5-a]pyrimidin-6-yl)piperazin-1-yl)-2-oxoethyl-1,1-d2)-2-fluorobenzamide]	< 100	< 100
CCc1c(N2CCN(C(=O)c3ccn4nc(C)cc4c3O)CC2)c(=O)n2nc(C3=CCOCC3)nc2n1CC(=O)Nc1ccc(C(F)(F)F)cc1Cl [Example 72, N-(2-Chloro-4-(trifluoromethyl)phenyl)-2-(2-(3,6-dihydro-2H-pyran-4-yl)-5-ethyl-6-(4-(4-hydroxy-2-methylpyrazolo[1,5-a]pyridine-5-carbonyl)piperazin-1-yl)-7-oxo-[1,2,4]triazolo[1,5-a]pyrimidin-4(7H)-yl)acetamide]	< 100	< 100
CCc1c(N2CCN(C(=O)CNC(=O)c3ccccc3F)CC2)c(=O)n2nc(C3=CCOCC3)nc2n1CC(=O)Nc1ccc(C(F)(F)F)cc1Cl [Example 97, N-(2-(4-(4-(2-((2-Chloro-4-(trifluoromethyl)phenyl)amino)-2-oxoethyl)-2-(3,6-dihydro-2H-pyran-4-yl)-5-ethyl-7-oxo-4,7-dihydro-[1,2,4]triazolo[1,5-a]pyrimidin-6-yl)piperazin-1-yl)-2-oxoethyl)-2-fluorobenzamide]	< 100	< 100
CCc1c(N2CCN(C(=O)CNC(=O)c3cccc(=O)[nH]3)CC2)c(=O)n2nc(C3=CCOCC3)nc2n1CC(=O)Nc1ccc(C(F)(F)F)cc1Cl [Example 366, N-(2-(4-(4-(2-((2-Chloro-4-(trifluoromethyl)phenyl)amino)-2-oxoethyl)-2-(3,6-dihydro-2H-pyran-4-yl)-5-ethyl-7-oxo-4,7-dihydro-[1,2,4]triazolo[1,5-a]pyrimidin-6-yl)piperazin-1-yl)-2-oxoethyl)-6-oxo-1,6-dihydropyridine-2-carboxamide]	< 100	< 100
CCc1c(N2CCN(C(=O)C(=O)Nc3nccs3)CC2)c(=O)n2nc(N3CCN4C(=O)OC[C@H]4C3)nc2n1CC(=O)Nc1ccc(C(F)(F)F)cc1F [Example 264, (R)-2-(4-(5-Ethyl-4-(2-((2-fluoro-4-(trifluoromethyl)phenyl)amino)-2-oxoethyl)-7-oxo-2-(3-oxotetrahydro-3H-oxazolo[3,4-a]pyrazin-7 (1H)-yl)-4,7-dihydro-[1,2,4]triazolo[1,5-a]pyrimidin-6-yl)piperazin-1-yl)-2-oxo-N-(thiazol-2-yl)acetamide]	< 100	< 100
CCc1c(N2CCN(C(=O)c3ncc4c(ccn4C)c3O)CC2)c(=O)n2nc(C3=CCOCC3)nc2n1CC(=O)Nc1ccc(C(F)(F)F)cc1Cl [Example 205, N-(2-Chloro-4-(trifluoromethyl)phenyl)-2-(2-(3,6-dihydro-2H-pyran-4-yl)-5-ethyl-6-(4-(4-hydroxy-1-methyl-1H-pyrrolo[2,3-c]pyridine-5-carbonyl)piperazin-1-yl)-7-oxo-[1,2,4]triazolo[1,5-a]pyrimidin-4(7H)-yl)acetamide]	< 100	< 100
